Experimental findings from patent US20130096163A1, “Injectable dosage form of flupirtine” (AWD.PHARMA GMBH & CO. KG, priority 2010, published 2013) are described below.

This series in a line: Solubility of flupirtine salts in water (stirring a suspension, filtration, HPLC-UV). It is filed as physicochemical. The method, then:
The solubility of the salt used is determined by stirring a suspension of a defined quantity of the corresponding salt for 30 minutes in a closed container in fully desalinated water at 25° C. The undissolved portion of the salt is filtered off, the filtrate is diluted to a suitable concentration range, and the flupirtine concentration of the solution determined using HPLC-UV (high performance liquid chromatography with UV-detection).
In a preferred embodiment of the invention, the flupirtine salt contained in the lyophilisate is selected from flupirtine mesilate, flupirtine besilate and/or flupirtine phosphate. Table 1shows the respective solubility of each of these flupirtine salts in water at 25° C. The solubility has been determined as described above.

Read-outs that look alike come from different tables or passages of the source.

As to `CCOC(=O)Nc1ccc(NCc2ccc(F)cc2)nc1N.O=S(=O)(O)c1ccccc1` [Flupirtine besilate], the Solubility (usually the concentration that dissolves in the medium under given conditions) (in fully desalinated water at 25° C., suspension stirred 30 minutes, filtrate by HPLC-UV) amounted to 2.8 mg/mL.
Turning to Flupirtine mesilate, the “Solubility” value is 16.8 mg/mL.
Consider Flupirtine phosphate, for which the “Solubility” value stood at 13.6 mg/mL.
